biological target: human BACE1 (Homo sapiens, UniProt P56817); assay: Fluorescent kinetic assay, evaluation of BACE1 binding affinity of test compounds; type: biochemical; conditions: 10 nM human BACE1, 25 μM substrate WABC-6, pH 4.5, room temperature; read-out: BACE1 IC50
How it was run: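 Kinetic fluorescence assay: enzyme added last to inhibitor and substrate mix, reading started immediately; substrate at 100 μM working dilution (25 μL in 100 μL total). Buffer 66.7 mM Na-acetate pH 4.5 with 0.0667% CHAPS for inhibitor and enzyme dilutions; enzyme stock quantified at 280 nm.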

Sequence of human BACE1 (P56817 46-501): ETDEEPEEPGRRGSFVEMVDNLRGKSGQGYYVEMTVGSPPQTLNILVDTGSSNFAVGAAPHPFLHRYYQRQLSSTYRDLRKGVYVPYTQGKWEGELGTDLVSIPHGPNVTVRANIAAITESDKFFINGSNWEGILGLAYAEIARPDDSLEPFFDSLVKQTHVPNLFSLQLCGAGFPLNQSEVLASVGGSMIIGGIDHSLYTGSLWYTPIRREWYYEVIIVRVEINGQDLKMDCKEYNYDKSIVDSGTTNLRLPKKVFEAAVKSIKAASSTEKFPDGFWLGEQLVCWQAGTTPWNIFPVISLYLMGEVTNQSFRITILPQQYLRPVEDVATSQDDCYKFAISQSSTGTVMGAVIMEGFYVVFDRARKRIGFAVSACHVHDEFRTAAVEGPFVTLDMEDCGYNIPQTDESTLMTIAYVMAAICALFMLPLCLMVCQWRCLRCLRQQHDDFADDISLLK

SMILES | IC50
CC#Cc1cccc([C@]2(c3ccc(OC(F)F)c(C4CC4)c3)N=C(N)N(C)C2=O)c1 (single isomer, unassigned) [Example 170] | > 1 µM
CCc1cc(C2(c3ccc(F)c(C#CCC(C)C)c3)N=C(N)N(C)C2=O)ccc1OC(F)F (centres unmarked) [Example 149, 2-Amino-5-[4-(difluoromethoxy)-3-ethylphenyl]-5-[4-fluoro-3-(4-methylpent-1-yn-1-yl)phenyl]-3-methyl-3,5-dihydro-4H-imidazol-4-one] | 0.11 to 1 µM
CCc1cc([C@@]2(c3ccc(F)c(C#CCOC)c3)N=C(N)N(C)C2=O)ccc1OC(F)F [Example 157, (5S)-2-Amino-5-[4-(difluoromethoxy)-3-ethylphenyl]-5-[4-fluoro-3-(3-methoxyprop-1-yn-1-yl)phenyl]-3-methyl-3,5-dihydro-4H-imidazol-4-one] | 0.11 to 1 µM
CN1C(=O)C(c2ccc(OC(F)F)c(C3CC3)c2)(c2ccc(OC(F)F)c(C3CC3)c2)N=C1N [Example 194, 2-amino-4,4-bis(3-cyclopropyl-4-(difluoromethoxy)phenyl)-1-methyl-1H-imidazol-5(4H)-one] | 0.11 to 1 µM
CN1C(=O)[C@@](c2cccc(C#CC3CC3)c2)(c2ccc(OC(F)F)c(C3CC3)c2)N=C1N (single isomer, unassigned) [Example 178] | 0.11 to 1 µM
CCc1cc([C@@]2(c3ccc(F)c(C#CCF)c3)N=C(N)N(C)C2=O)ccc1OC(F)F [Example 163, (5S)-2-Amino-5-[4-(difluoromethoxy)-3-ethylphenyl]-5-[4-fluoro-3-(3-fluoroprop-1-yn-1-yl)phenyl]-3-methyl-3,5-dihydro-4H-imidazol-4-one] | 0.11 to 1 µM
Cc1cc(C2(c3ccc(F)cc3)N=C(N)N(C)C2=O)ccc1OC(F)F (centres unmarked) [Example 3, 2-Amino-4-(4-(difluoromethoxy)-3-methylphenyl)-4-(4-fluorophenyl)-1-methyl-1H-imidazol-5(4H)-one] | 0.11 to 1 µM
CN1C(=O)[C@@](c2cccc(Br)c2)(c2ccc(OC(F)F)c(C3CC3)c2)N=C1N (single isomer, unassigned) [Example 166] | > 1 µM
CN1C(=O)C(c2ccc(F)c(C#CCF)c2)(c2ccc(OC(F)F)c(C3CC3)c2)N=C1N (centres unmarked) [Example 210, 2-amino-5-[3-cyclopropyl-4-(difluoromethoxy)phenyl]-5-[4-fluoro-3-(3-fluoroprop-1-yn-1-yl)phenyl]-3-methyl-3,5-dihydro-4H-imidazol-4-one] | < 0.1 µM
CCC#Cc1cc([C@]2(c3ccc(OC(F)F)c(C)c3)N=C(N)N(C)C2=O)ccc1F (single isomer, unassigned) [Example 84] | 0.11 to 1 µM
CCc1cc([C@]2(c3ccc(F)c(C#CCF)c3)N=C(N)N(C)C2=O)ccc1OC(F)F [Example 162, (5R)-2-Amino-5-[4-(difluoromethoxy)-3-ethylphenyl]-5-[4-fluoro-3-(3-fluoroprop-1-yn-1-yl)phenyl]-3-methyl-3,5-dihydro-4H-imidazol-4-one] | < 0.1 µM
Cc1cc(C2(c3ccc(F)c(C#CC(C)C)c3)N=C(N)N(C)C2=O)ccc1OC(F)F (centres unmarked) [Example 48, 2-Amino-5-[4-(difluoromethoxy)-3-methylphenyl]-5-[4-fluoro-3-(3-methylbut-1-yn-1-yl)phenyl]-3-methyl-3,5-dihydro-4H-imidazol-4-one] | < 0.1 µM
CCc1cc(C2(c3ccc(F)c(C#CC4CC4)c3)N=C(N)N(C)C2=O)ccc1OC(F)F (centres unmarked) [Example 146, 2-Amino-5-[3-(cyclopropylethynyl)-4-fluorophenyl]-5-[4-(difluoromethoxy)-3-ethylphenyl]-3-methyl-3,5-dihydro-4H-imidazol-4-one] | < 0.1 µM
CCCc1cc([C@]2(c3ccccc3)N=C(N)N(C)C2=O)ccc1OC(F)F (single isomer, unassigned) [Example 79] | < 0.1 µM
CN1C(=O)C(c2cccc(C#CCCF)c2)(c2ccc(OC(F)F)c(C3CC3)c2)N=C1N (centres unmarked) [Example 211, 2-amino-5-[3-cyclopropyl-4-(difluoromethoxy)phenyl]-5-[3-(4-fluorobut-1-yn-1-yl)phenyl]-3-methyl-3,5-dihydro-4H-imidazol-4-one] | < 0.1 µM
CCOc1cccc(C2(c3ccc(OC(F)F)c(C)c3)N=C(N)N(C)C2=O)c1 (centres unmarked) [Example 41, 2-Amino-5-[4-(difluoromethoxy)-3-methylphenyl]-5-(3-ethoxyphenyl)-3-methyl-3,5-dihydro-4H-imidazol-4-one] | < 0.1 µM
COCCc1cc(C2(c3ccccc3)N=C(N)N(C)C2=O)ccc1OC(F)F (centres unmarked) [Example 142, 2-Amino-5-[4-(difluoromethoxy)-3-(2-methoxyethyl)phenyl]-3-methyl-5-phenyl-3,5-dihydro-4H-imidazol-4-one] | < 0.1 µM
CCCOc1cc(C2(c3ccc(OC(F)F)c(Cl)c3)N=C(N)N(C)C2=O)ccc1F (centres unmarked) [Example 97, 2-Amino-5-[3-chloro-4-(difluoromethoxy)phenyl]-5-(4-fluoro-3-propoxyphenyl)-3-methyl-3,5-dihydro-4H-imidazol-4-one] | < 0.1 µM

Now from value to molecule:

IC50 | SMILES
< 0.1 µM | CN1C(=O)[C@](c2ccccc2)(c2ccc(OC(F)F)c(CCF)c2)N=C1N (single isomer, unassigned) [Example 75]
< 0.1 µM | CC(C)C#Cc1cccc(C2(c3ccc(OC(F)F)c(C4CC4)c3)N=C(N)N(C)C2=O)c1 (centres unmarked) [Example 173, 2-amino-4-(3-cyclopropyl-4-(difluoromethoxy)phenyl)-1-methyl-4-(3-(3-methylbut-1-ynyl)phenyl)-1H-imidazol-5(4H)-one]
< 0.1 µM | Cc1cc(C2(c3cccc(OCCCF)c3)N=C(N)N(C)C2=O)ccc1OC(F)F (centres unmarked) [Example 45, 2-Amino-5-[4-(difluoromethoxy)-3-methylphenyl]-5-[3-(3-fluoropropoxy)phenyl]-3-methyl-3,5-dihydro-4H-imidazol-4-one]
< 0.1 µM | CCc1cc(C2(c3ccc(F)c(C#CCF)c3)N=C(N)N(C)C2=O)ccc1OC(F)F (centres unmarked) [Example 159, 2-Amino-5-[4-(difluoromethoxy)-3-ethylphenyl]-5-[4-fluoro-3-(3-fluoroprop-1-yn-1-yl)phenyl]-3-methyl-3,5-dihydro-4H-imidazol-4-one]
< 0.1 µM | CCc1cc([C@]2(c3ccc(F)c(C#CCOC)c3)N=C(N)N(C)C2=O)ccc1OC(F)F [Example 156, (5R)-2-Amino-5-[4-(difluoromethoxy)-3-ethylphenyl]-5-[4-fluoro-3-(3-methoxyprop-1-yn-1-yl)phenyl]-3-methyl-3,5-dihydro-4H-imidazol-4-one]
< 0.1 µM | CC(C)CC#Cc1cc(C2(c3ccc(OC(F)F)c(CCF)c3)N=C(N)N(C)C2=O)ccc1F (centres unmarked) [Example 90, 2-amino-5-[4-(difluoromethoxy)-3-(2-fluoroethyl)phenyl]-5-[4-fluoro-3-(4-methylpent-1-yn-1-yl)phenyl]-3-methyl-3,5-dihydro-4H-imidazol-4-one]
< 0.1 µM | CC(C)C#Cc1cccc([C@@]2(c3ccc(OC(F)F)c(C4CC4)c3)N=C(N)N(C)C2=O)c1 (single isomer, unassigned) [Example 174]
< 0.1 µM | CCc1cc(C2(c3ccc(F)c(C#CCOC)c3)N=C(N)N(C)C2=O)ccc1OC(F)F (centres unmarked) [Example 152, 2-Amino-5-[4-(difluoromethoxy)-3-ethylphenyl]-5-[4-fluoro-3-(3-methoxyprop-1-yn-1-yl)phenyl]-3-methyl-3,5-dihydro-4H-imidazol-4-one]
< 0.1 µM | CN1C(=O)C(c2cccc(C#CCF)c2)(c2ccc(OC(F)F)c(C3CC3)c2)N=C1N (centres unmarked) [Example 209, 2-amino-5-[3-cyclopropyl-4-(difluoromethoxy)phenyl]-5-[3-(3-fluoroprop-1-yn-1-yl)phenyl]-3-methyl-3,5-dihydro-4H-imidazol-4-one]
< 0.1 µM | CN1C(=O)C(c2ccc(F)c(C#CC3CC3)c2)(c2ccc(OC(F)F)c(CCF)c2)N=C1N (centres unmarked) [Example 92, 2-amino-5-[3-(cyclopropylethynyl)-4-fluorophenyl]-5-[4-(difluoromethoxy)-3-(2-fluoroethyl)phenyl]-3-methyl-3,5-dihydro-4H-imidazol-4-one]
< 0.1 µM | Cc1cc([C@]2(c3ccc(F)c(OCCC(F)F)c3)N=C(N)N(C)C2=O)ccc1OC(F)F [Example 132, (5R)-2-Amino-5-[4-(difluoromethoxy)-3-methylphenyl]-5-[3-(3,3-difluoropropoxy)-4-fluorophenyl]-3-methyl-3,5-dihydro-4H-imidazol-4-one]
< 0.1 µM | CN1C(=O)[C@](c2cccc(C#CCCCO)c2)(c2ccc(OC(F)F)c(C3CC3)c2)N=C1N (single isomer, unassigned) [Example 190]

same assay, conditions: BACE1 IC50 μM, 10 nM human BACE1, 25 μM substrate WABC-6, pH 4.5, room temperature

SMILES | IC50
COc1ccc(C2(c3ccc(OC(F)F)c(C)c3)N=C(N)N(C)C2=O)cc1C#N (centres unmarked) [Example 21, 5-{2-Amino-4-[4-(difluoromethoxy)-3-methylphenyl]-1-methyl-5-oxo-4,5-dihydro-1H-imidazol-4-yl}-2-methoxybenzonitrile] | 0.11 to 1 µM
CCc1cc(C2(c3ccccc3)N=C(N)N(C)C2=O)ccc1OC(F)F (centres unmarked) [Example 6, 2-Amino-5-[4-(difluoromethoxy)-3-ethylphenyl]-3-methyl-5-phenyl-3,5-dihydro-4H-imidazol-4-one] | 0.11 to 1 µM
CN1C(=O)C(c2ccccc2)(c2ccc(OC(F)F)c(CF)c2)N=C1N (centres unmarked) [Example 13, 2-Amino-5-[4-(difluoromethoxy)-3-(fluoromethyl)phenyl]-3-methyl-5-phenyl-3,5-dihydro-4H-imidazol-4-one] | 0.11 to 1 µM
CN1C(=O)C(c2ccccc2)(c2ccc(OC(F)F)c(C3CC3)c2)N=C1N (centres unmarked) [Example 10, 2-Amino-5-[3-cyclopropyl-4-(difluoromethoxy)phenyl]-3-methyl-5-phenyl-3,5-dihydro-4H-imidazol-4-one] | < 0.1 µM

same assay, conditions: read-out: BACE1 IC50 μM; 10 nM human BACE1, 25 μM substrate WABC-6, pH 4.5, room temperature

SMILES | IC50
CC(C)c1cc(C2(c3ccccc3)N=C(N)N(C)C2=O)ccc1OC(F)F (centres unmarked) [Example 9, 2-Amino-5-[4-(difluoromethoxy)-3-isopropylphenyl]-3-methyl-5-phenyl-3,5-dihydro-4H-imidazol-4-one] | 0.11 to 1 µM

Source: patent US20090042964A1, “AMINO-5-[SUBSTITUTED-4-(DIFLUOROMETHOXY)PHENYL]-5-PHENYLIMIDAZOLONE COMPOUNDS AS BETA-SECRETASE INHIBITORS” (Wyeth, priority 2007, published 2009)
